Source: a melting point compilation (Tetko et al.; mined from patent text by program, amines drawn as free bases though some values may be those of a salt)

Row | Compound | melting point
1 | COC(=O)CN(C(=O)CCCOc1ccc2c(c1)CN1CC(=O)NC1=N2)C1CCCCC1 | 185 to 186 °C
2 | CSN(C)C(=O)Nc1ccc(Cl)c(Cl)c1 | 93 °C
3 | CC(=O)N1C(=O)NC(=O)C12c1ccccc1N(C)C(=O)N2C (stereo unspecified) | 261 to 263 °C
4 | Cn1cc(C(N)=O)c(=O)c2cc(F)ccc21 | 295 to 299 °C
5 | COc1cc([N+](=O)[O-])c2ncc(C)cc2c1 | 173 to 175 °C
6 | Cc1csc(C)c1S(N)(=O)=O | 135 °C
7 | Cc1cc2c(cc1C1=NNC(=O)SC1C)C(C)(C)C(=O)N2 (stereo unspecified) | 240 °C
8 | O=[N+]([O-])c1c(-c2ccc(Cl)cc2)[nH]c(SC(F)(F)F)c1Br | 160 to 165 °C
9 | Cc1sc(N2C(=O)c3ccccc3C2=O)c(C(=O)c2ccc(Cl)cc2)c1CBr | 173 to 175 °C
10 | CS(=O)c1n[nH]c2ccc(Cl)cc2c1=O (stereo unspecified) | 267 to 272 °C
11 | Nc1cc(C(=O)c2ccc(Oc3ccccc3)c(N)c2)ccc1Oc1ccccc1 | 153 to 154 °C
12 | CC(C)(C)c1cc(Cn2c(=S)sc3ccccc32)cc(C(C)(C)C)c1O | 148 to 150 °C
13 | O[C@H](COc1cccc2[nH]ccc12)CN1CCC(c2c[nH]c3c(Cl)c(Cl)ccc23)CC1 | 192 to 197 °C
14 | CC1(C)Oc2ccc(C#N)cc2[C@@H](N2CCCC2=O)[C@@H]1O (relative stereo) | 226 °C
15 | CC1(C)CCC(=O)Nc2cc(OCCCN3CCN(c4cccc(Cl)c4Cl)CC3)ccc21 | 162 to 164 °C
16 | Cc1cc(-c2cc3c(OC[C@@H](O)CN4CCC(c5ccc6ccccc6c5)CC4)cccc3o2)nn1C | 155 to 157 °C
17 | CC1(C)Cc2cc(Cl)cc(Cl)c2C=[N+]1[O-] | 92 to 94 °C
18 | Cc1oc2cc3sc4ccccc4c3c(-c3cc(I)c(O[C@H](C)C(=O)O)c(I)c3)c2c1C | 218 to 219 °C
19 | O=C(O)c1cn(C2COC2)c2c(F)c(F)cc(F)c2c1=O | > 300 °C
20 | C[C@H](C#Cc1scc(Cc2ccc(F)cc2)c1Cc1ccc(F)cc1)N(O)C(N)=O | 128 to 130 °C
21 | CN1CCC(O)(c2cc(F)cc(F)c2)C1 (stereo unspecified) | 150 °C
22 | N#Cc1ccc(N(Cc2ccc(OCc3ccccc3)cc2)n2cnnc2)cc1 | 206 to 211 °C
23 | O=[N+]([O-])N=c1ccccn1Cc1ccccc1 | 125 to 126 °C
24 | CC(C)C(=O)N(C(=O)OC(C)(C)C)C(CC(N)C(=O)OCc1ccccc1)C(N)=O (stereo unspecified) | 112 to 113 °C
25 | Cn1c(CC(=O)O)cc2c1C(=O)c1sccc1CC2 | 157 to 158 °C
26 | O=c1c(N2CCNCC2)nc2ccccc2n1-c1ccccc1Cl | 135 to 137 °C

Row | Compound | melting point
27 | COC(OC)c1ncc[nH]1 | 122 °C
28 | CCC1C(=O)c2c(cc(O)c(Cl)c2Cl)C1c1ccccc1 (stereo unspecified) | 220 to 222 °C
29 | O=C1NCCN1Cc1c(Cl)cccc1Cl | 156 to 158 °C
30 | CCCCNc1c(C(=O)OCC)c(C)nc2[nH]c(O)nc12 | 249 to 252 °C
31 | C1=C(c2c[nH]c3ccccc23)CCN(CC2COc3ccc4[nH]ccc4c3O2)C1 (stereo unspecified) | 126 °C
32 | CC(=O)N[C@@H](CSC(C)=O)C(=O)NCCSC(C)=O | 153 to 154 °C
33 | Cc1ccc(-n2nc(OC(=O)c3ccccc3)c3c(c2=O)Cc2ccc(Cl)cc2N3)cc1 | 248 to 250 °C
34 | O=C(O)[C@@H]1CCCN1S(=O)(=O)CCS | 99 to 101 °C
35 | CCNc1nc(-c2cccc([N+](=O)[O-])c2)c2cc(OC)c(OC)cc2n1 | 164 to 166 °C
36 | CCOC(=O)CCc1ccc2c(c1)CC(CNC(=O)OC(C)(C)C)CC2 (stereo unspecified) | 69 to 71 °C
37 | C[C@H](NC(=O)OC(C)(C)C)C(=O)OC[C@@H]1CCCN1c1cccc2c1C(=O)c1ccccc1C2=O | 110 °C
38 | O=C(O)[C@@H]1CCN2C(=O)CC[C@H](N3C(=O)c4ccccc4C3=O)C(=O)N12 | 232 to 233 °C
39 | COc1ccc(CCc2ccncc2N)cc1OC1CCCC1 | 108 to 110 °C
40 | CC(C)(C)c1ccc(NS(=O)(=O)c2ccc(N3CCNC3=O)cc2)cc1 | 241 to 243 °C
41 | CCOC(=O)C1=C(COCc2nccn2C)NC(C)=C(C(=O)OC)C1c1ccccc1Cl (stereo unspecified) | 137 to 138 °C
42 | Cc1cc(N2CCN(c3c(C)c(C)c4c(c3C)CC(C)(C)O4)CC2)n2nccc2n1 | 180 to 182 °C
43 | Nc1nc(-c2ccccc2)nc2c1ncc(=O)n2C1CC(O)C(CO)O1 (stereo unspecified) | 169 to 172 °C
44 | Cc1cccc2c1CCC(=O)C2(O)C(F)(F)F (stereo unspecified) | 122 to 123 °C
45 | COc1ccc2nc(NC(=O)C(CC3CCCC3)c3ccc(S(=O)(=O)NCc4ccccc4F)cc3)sc2n1 (stereo unspecified) | 238 to 240 °C
46 | CCOCC(=O)Nc1occ(C(C)(C)C)c1C#N | 98 °C
47 | OCC(COc1noc2ccc(Cl)cc12)NC(c1ccccc1)(c1ccccc1)c1ccccc1 (stereo unspecified) | 142 to 144 °C
48 | CCCCCCCCCc1ccc(C(CCCC=O)C(=O)OC)cc1 (stereo unspecified) | 38 to 39 °C
49 | COC[C@H](C)Oc1cc(O)cc(C(=O)O)c1 | 95 °C
50 | CC1(C)Cc2sc3c(c2C1)CCNC3=O | 205 to 207 °C
51 | COc1cc2c(cc1OC)C(c1ccccc1)N(C(=O)NCCN(C(C)C)C(C)C)CC2 (stereo unspecified) | 109 to 110 °C
52 | C(=C\c1cc(/C=C/c2ccccc2-c2cccnc2)[nH]n1)/c1ccc2cc[nH]c2c1 | 248 to 255 °C

Row | Compound | melting point
53 | c1ccc(-c2ccon2)cc1 | 75 °C
54 | CS(=O)c1coc2cc(NS(C)(=O)=O)c(Oc3ccccc3)cc2c1=O (stereo unspecified) | > 250 °C
55 | CCOc1cc(-c2cc(C(F)(F)F)n3ncc(-c4nc(-c5ccc(N)nc5)no4)c3n2)ccc1C(F)(F)F | 263 °C
56 | COC(=O)[C@@H]1NC(=O)[C@@H]1NC(=O)COc1ccccc1 (relative stereo) | 140 to 141 °C
57 | CCOC(=O)C1=C(C)Nc2n[nH]cc2C1c1ccccc1OC (stereo unspecified) | 196 to 200 °C
58 | COC(=O)c1ccc(NC(=O)NCCCl)cc1 | 163 to 165 °C
59 | Cc1cc(C)c2[nH]c(=O)c(O)cc(=O)c2c1 | 211 to 213 °C
60 | OCc1cnoc1-c1ccc(OC(F)(F)F)cc1 | 45 to 46 °C
61 | COC(=O)N(CC(=O)Nc1ccc(S(N)(=O)=O)cc1Cl)c1ccccc1 | 196 to 198 °C
62 | CCOC(=O)[C@H](Cc1ccc(Nc2nccc3ccncc23)cc1)NC1=CC(=O)C12CCOCC2 | 112 °C
63 | CCCCCCCCCCCCCCCC(=O)OC(CCCCCCCCCCCCCC)C(=O)O (stereo unspecified) | 55 to 56 °C
64 | COc1ccc(-c2cc(=Nc3c(C)cc(C)cc3C)n(C)c3nncn23)cc1OC | 125 to 130 °C
65 | Brc1c(NC2=NCCN2)ccc2ncn(CC3CCCCC3)c12 | 153 to 155 °C
66 | CC(C)(C)OC(=O)NCCc1c[nH]c2ccc(CCO)cc12 | 204 to 206 °C
67 | Cc1ccc2c(c1)NC(=O)c1cc(C)sc1O2 | 175 to 179 °C
68 | O=C(Nc1ccc(OCCCc2cccnc2)c2ccccc12)c1cc(F)cc(N2CCOCC2)c1 | 64 to 66 °C
69 | CNC(=O)Cc1ccc2c(c1)Cc1c-2[nH]c(=O)c2nccn12 | > 260 °C
70 | CCC1=NNC(C)=C(C(=O)NN)C1c1cccc([N+](=O)[O-])c1 (stereo unspecified) | 98 °C
71 | CC(C)(C)n1nc(-c2ccc(C(F)(F)F)cc2)c(C#N)c1N | 155 to 156 °C
72 | COc1cc(Nc2c(C#N)cnc3cc(OCCCN4CCN(C)CC4)c(OC)cc23)c(Cl)cc1Cl | 116 to 120 °C
73 | COc1cc(CC(=O)O)ccc1SCc1sc(-c2ccc(C(F)(F)F)cc2)nc1C | 181 to 182 °C
74 | CCOc1nc2nc(SC)nn2c2c1cnc1c2cnn1CC | 209 to 211 °C
75 | COc1ccccc1NC1=NN(S(=O)(=O)c2ccc(C)cc2)CC1 | 176 to 179 °C
76 | Nc1cc(C=O)nc(Cc2ccc(F)cc2)c1F | 130 to 131 °C
77 | CCOC(=O)CNC(=O)CCCOc1ccc2nc3[nH]c(=O)[nH]c3cc2c1 | 274 to 276 °C
78 | CCCn1ccc2c(c1=O)C(c1ccccc1)C(C(=O)OCC)=C(C)N2 (stereo unspecified) | 215 to 217 °C

Row | Compound | melting point
79 | CNC(=O)c1ccccc1Nc1nc(Nc2cc3c(cc2OC)CCN(CCOC)CC3)ncc1Br | 171 to 175 °C
80 | CC(C)Cc1ccc2c(c1)OC(=O)C2 | 24 to 25 °C
81 | COc1cc(C)c(C(O)C#CC(F)(F)F)c(C)c1C (stereo unspecified) | 126 to 130 °C
82 | CN1CCN(C(=O)CCC(=O)c2ccc3[nH]c4nc(Cl)ccc4c3c2)CC1 | 236 °C
83 | COc1cc(C2=C(c3c[nH]c4cccnc34)C(=O)NC2=O)cc(OC)c1OC | 274 to 275 °C
84 | Nc1cccc(OCc2ncc3ccccc3n2)c1 | 103 to 107 °C
85 | OCc1c(F)c(F)c(Br)c(F)c1F | 60 to 62 °C
86 | Nc1ncnc2c1ncn2Cc1oc2ccccc2c(=O)c1-c1ccccc1F | 202 to 205 °C
87 | CCCC(=O)NC[C@@H]1CN(c2nc3c(cc2F)c(=O)c(C(=O)OCC)cn3C2CC2)C[C@H]1F (relative stereo) | 105 to 107 °C
88 | COC(=O)C(CO)N(Cc1cc(F)ccc1[N+](=O)[O-])S(=O)(=O)c1ccc(OC)cc1 (stereo unspecified) | 83 to 88 °C
89 | CNC(=O)CC1CCN(Cc2cnc3c(C)c(NC(=O)c4ccc(-c5ccc(F)cc5)cc4)ccc3c2)CC1 | 229 to 231 °C
90 | COc1cccc(-c2nc3ccc(OC(F)(F)F)cc3[nH]2)c1 | 192 to 194 °C
91 | O=C(c1ccc(Nc2ncnc3ccccc23)cc1)N1CCN(c2ncc(Cc3ccccc3)cn2)CC1 | 245 to 247 °C
92 | COc1ccc(C(=O)NCC(O)CCl)cc1OC (stereo unspecified) | 104 to 106 °C
93 | CCc1ccc(CCc2ccccc2NC=O)nc1 | 62 to 63.5 °C
94 | CCCc1noc(-c2ccccc2)c1-c1ccc(S(N)(=O)=O)cc1 | 167 °C
95 | CSc1ncncc1C(Cl)c1ccccc1F (stereo unspecified) | 144 to 145 °C
96 | CCc1cc2c(NCc3ccc4c(c3)OCO4)nc(Cl)nc2s1 | 148 °C
97 | CS(=O)(=O)c1ccc(-c2nc(C(F)(F)F)[nH]c2-c2ccc(Cl)c(Cl)c2)cc1 | 249 to 251 °C
98 | Cc1cc(NC(=O)C(C)(O)COc2cccc(C#N)c2)ccc1[N+](=O)[O-] (stereo unspecified) | 107 to 110 °C
99 | CC(C)c1cccc(C(C)C)c1NC(=O)CN1CN(c2ccccc2)C2(CCCCC2)C1 | 151 to 153 °C
100 | O=C(NC1CCN(c2ccccc2)C1)c1ccc([N+](=O)[O-])cc1 (stereo unspecified) | 153 to 155 °C
101 | CCOc1cc2cc(CO)c(CO)c(-c3ccncc3)c2cc1OCC | 159 to 161 °C
